Measured values from ChEMBL document CHEMBL1130188, “Synthesis and stereochemical structure-activity relationships of 1,3-dioxoperhydropyrido[1,2-c]pyrimidine derivatives: potent and selective cholecystokinin-A receptor antagonists” (J Med Chem, 1997).
pIC50, pKi: −log10 of the molar value.

Key:
[1] = molecular target: T1, Cholecystokinin receptor type A (Rattus norvegicus, UniProt P30551); test: Inhibition of [3H]pCCK-8 specific binding to Cholecystokinin type A receptor of rat pancreas
T1 sequence (P30551 whole entry): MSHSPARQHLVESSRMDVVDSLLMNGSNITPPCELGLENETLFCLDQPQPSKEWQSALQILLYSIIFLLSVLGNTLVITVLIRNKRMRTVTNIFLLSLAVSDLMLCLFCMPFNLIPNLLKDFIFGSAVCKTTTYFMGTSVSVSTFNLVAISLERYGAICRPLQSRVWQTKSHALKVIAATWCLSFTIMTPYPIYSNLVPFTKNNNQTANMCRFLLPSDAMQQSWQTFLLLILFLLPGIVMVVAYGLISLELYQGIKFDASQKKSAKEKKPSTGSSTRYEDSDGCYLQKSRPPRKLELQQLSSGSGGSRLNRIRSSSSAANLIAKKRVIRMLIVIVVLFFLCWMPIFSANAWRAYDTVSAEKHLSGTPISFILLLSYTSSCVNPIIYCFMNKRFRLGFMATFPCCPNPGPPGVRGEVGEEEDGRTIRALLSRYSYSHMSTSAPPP

[2] = molecular target: T2, Gastrin/cholecystokinin type B receptor (Rattus norvegicus, UniProt P30553); test: Inhibition of [3H]- pCCK-8 binding to Cholecystokinin type B receptor of rat cerebral cortex membranes; format: cell membranes, Membrane
T2 sequence (P30553 whole entry): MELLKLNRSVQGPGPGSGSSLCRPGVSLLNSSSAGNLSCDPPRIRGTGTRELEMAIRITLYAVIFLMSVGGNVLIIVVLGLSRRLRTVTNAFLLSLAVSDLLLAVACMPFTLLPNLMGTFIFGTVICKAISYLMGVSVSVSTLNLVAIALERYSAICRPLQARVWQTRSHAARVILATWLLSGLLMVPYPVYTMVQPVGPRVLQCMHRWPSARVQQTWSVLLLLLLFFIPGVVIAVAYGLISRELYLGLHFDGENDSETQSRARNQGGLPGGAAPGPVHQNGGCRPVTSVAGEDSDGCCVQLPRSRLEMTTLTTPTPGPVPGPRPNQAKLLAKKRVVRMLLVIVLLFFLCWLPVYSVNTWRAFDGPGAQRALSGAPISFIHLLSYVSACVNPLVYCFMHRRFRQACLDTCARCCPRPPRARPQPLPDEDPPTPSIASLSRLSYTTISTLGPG

Rattus norvegicus = species: Rattus norvegicus; test: Compound was tested for inhibition of amylase release stimulated by CCK-8 (0.5 nM) in dispersed pancreatic acini.

Compound	pKi [1]	pKi [2]	pIC50 (Rattus norvegicus)
CC(C)(C)OC(=O)N[C@@H](Cc1c[nH]c2ccccc12)C(=O)N[C@@H]1CCCN2C(=O)N(Cc3ccccc3)C(=O)C[C@@H]12 [IQM-95333]	5.54	5.54	–
CC(C)(C)OC(=O)N[C@H](Cc1c[nH]c2ccccc12)C(=O)N[C@@H]1CCCN2C(=O)N(Cc3ccccc3)C(=O)C[C@H]12	–	< 5.30	–
CC(C)(C)OC(=O)N[C@H](Cc1c[nH]c2ccccc12)C(=O)N[C@H]1CCCN2C(=O)N(Cc3ccccc3)C(=O)C[C@H]12	< 5.30	< 5.30	–
CC(C)(C)OC(=O)N[C@H](Cc1c[nH]c2ccccc12)C(=O)N[C@@H]1CCCN2C(=O)N(Cc3ccccc3)C(=O)C[C@@H]12	< 5.30	5.72	–
CN1C(=O)[C@H](NC(=O)c2cc3ccccc3[nH]2)N=C(c2ccccc2)c2ccccc21	–	–	7.60

Further lines, with some results ahead:

pKi [1]	pKi [2]	Compound	pIC50 (Rattus norvegicus)
9.21	< 5.30	CC(C)(C)OC(=O)N[C@@H](Cc1c[nH]c2ccccc12)C(=O)N[C@H]1CCCN2C(=O)N(Cc3ccccc3)C(=O)C[C@@H]12	7.67
6.24	< 5.30	CC(C)(C)OC(=O)N[C@@H](Cc1c[nH]c2ccccc12)C(=O)N[C@H]1CCCN2C(=O)N(Cc3ccccc3)C(=O)C[C@H]12	–
6.53	< 5.30	CC(C)(C)OC(=O)N[C@H](Cc1c[nH]c2ccccc12)C(=O)N[C@H]1CCCN2C(=O)N(Cc3ccccc3)C(=O)C[C@@H]12	–
–	< 5.30	COC(=O)[C@@]1(Cc2ccccc2)C[C@@H]2[C@@H](NC(=O)[C@H](Cc3c[nH]c4ccccc34)NC(=O)OC(C)(C)C)CCCN2C1=O	–
< 5.30	5.81	COC(=O)[C@]1(Cc2ccccc2)C[C@@H]2[C@@H](NC(=O)[C@@H](Cc3c[nH]c4ccccc34)NC(=O)OC(C)(C)C)CCCN2C1=O	–
7.97	5.56	CC(C)(C)OC(=O)N[C@@H](Cc1c[nH]c2ccccc12)C(=O)N[C@@H]1CCCN2C(=O)N(Cc3ccccc3)C(=O)C[C@H]12	6.70
